No end group written: not given here.
Experiments:
GluN1-GluN2A receptors = settings: channel blocker; ref Wang et al., 2021; cited from earlier work
GluN1-GluN2B = biological target: T1, GluN1-GluN2B (Rattus norvegicus, UniProt P35439+Q00960); type: cell-based
T1 construct: GFP (N); expressed in transfected cells; host or cells: HEK-293T

NMDARs = system: NMDARs; parameters: method as in 3 sources, one per row (each row's own in cited_ref): ref Johnson and Ascher, 1987 ||| ref Chopra et al., 2015 ||| ref Lerma, 1992; settings: cited from earlier work
GluN1-GluN2B^ΔNTD = assay: whole-cell patch clamp, ifenprodil inhibition of NTD-deleted GluN1-GluN2B; type: cell-based; settings: 10 µM ifenprodil co-applied with agonists; HEK-293
[1] = system: synaptic NMDARs, cultured hippocampal neurons; type: cell-based, rat
[2] = system: triheteromeric NMDARs (GluN1, GluN2A, GluN2B); settings: cited from earlier work
[3] = system: GluN2B-containing di-heteromers; settings: ref Kellner and Berlin, 2024; cited from earlier work

T1 sequence (Q00960 27-1482, other chains not shown): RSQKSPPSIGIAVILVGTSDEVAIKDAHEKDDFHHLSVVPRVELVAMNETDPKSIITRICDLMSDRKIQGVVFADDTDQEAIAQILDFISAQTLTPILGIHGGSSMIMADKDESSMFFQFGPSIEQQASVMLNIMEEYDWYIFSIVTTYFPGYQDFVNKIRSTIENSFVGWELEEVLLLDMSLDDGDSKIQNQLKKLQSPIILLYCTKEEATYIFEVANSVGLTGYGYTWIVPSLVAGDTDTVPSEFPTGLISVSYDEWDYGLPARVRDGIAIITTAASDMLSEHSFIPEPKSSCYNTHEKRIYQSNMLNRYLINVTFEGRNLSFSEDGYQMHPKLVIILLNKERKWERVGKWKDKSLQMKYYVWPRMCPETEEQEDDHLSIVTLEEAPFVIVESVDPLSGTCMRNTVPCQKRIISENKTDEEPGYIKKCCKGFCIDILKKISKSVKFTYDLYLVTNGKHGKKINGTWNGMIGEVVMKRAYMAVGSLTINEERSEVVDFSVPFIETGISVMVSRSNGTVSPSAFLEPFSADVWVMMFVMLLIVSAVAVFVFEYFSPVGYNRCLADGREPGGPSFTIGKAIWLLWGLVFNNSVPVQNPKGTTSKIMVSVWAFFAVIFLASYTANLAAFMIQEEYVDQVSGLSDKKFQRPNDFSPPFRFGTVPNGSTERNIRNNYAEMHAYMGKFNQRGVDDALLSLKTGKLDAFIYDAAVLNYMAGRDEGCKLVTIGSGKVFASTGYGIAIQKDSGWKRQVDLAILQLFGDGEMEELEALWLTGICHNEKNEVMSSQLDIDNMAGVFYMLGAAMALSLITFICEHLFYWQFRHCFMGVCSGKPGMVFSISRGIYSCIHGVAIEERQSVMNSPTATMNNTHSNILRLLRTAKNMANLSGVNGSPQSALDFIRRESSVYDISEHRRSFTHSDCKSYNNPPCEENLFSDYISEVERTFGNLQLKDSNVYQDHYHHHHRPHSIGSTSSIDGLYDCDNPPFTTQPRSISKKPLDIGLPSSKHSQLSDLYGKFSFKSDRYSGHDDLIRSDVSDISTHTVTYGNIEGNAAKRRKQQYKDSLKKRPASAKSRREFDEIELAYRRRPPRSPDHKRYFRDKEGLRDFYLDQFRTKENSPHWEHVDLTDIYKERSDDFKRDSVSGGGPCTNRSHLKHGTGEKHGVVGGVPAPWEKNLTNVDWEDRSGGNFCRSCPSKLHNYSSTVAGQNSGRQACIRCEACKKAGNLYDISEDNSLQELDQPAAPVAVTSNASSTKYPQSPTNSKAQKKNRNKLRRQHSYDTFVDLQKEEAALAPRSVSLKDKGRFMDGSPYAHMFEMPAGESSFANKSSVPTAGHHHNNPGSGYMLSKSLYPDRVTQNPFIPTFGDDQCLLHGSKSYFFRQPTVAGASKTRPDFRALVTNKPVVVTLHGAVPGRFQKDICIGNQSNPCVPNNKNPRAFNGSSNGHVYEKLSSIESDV

Molecule: Nc1c2ccccc2nc2ccccc12 [9-aminoacridine]
- current following removal (GluN1-GluN2A receptors): a transient inward current

Molecule: N[C@@H](CCC(=O)O)C(=O)O [glutamate, L-glutamate, reference compound]
- response to glutamate alone (GluN1-GluN2B): generated a significant current response
- activation by glutamate alone (NMDARs; ref Johnson and Ascher, 1987): slightly activate the channel

Molecule: CC(C(O)c1ccc(O)cc1)N1CCC(Cc2ccccc2)CC1 (stereo not shown) [ifenprodil]
- inhibition of agonist-evoked current (GluN1-GluN2B^ΔNTD): no inhibitory effect was observed

Molecule: CC12CC3CC(C)(C1)CC(N)(C3)C2 [memantine]
- effect on EPSCs [1]: abolished
- affinity for triheteromeric NMDARs ([2]; compared to NMDARs containing only GluN2B, ref Chen et al., 2020): lower affinity for triheteromeric NMDARs

Molecule: NCCCNCCCCNCCCN [spermine]
- potentiation of GluN2B-containing di-heteromers [3]: strongly potentiates GluN2B-containing di-heteromers
- enhancement of triheteromeric NMDARs ([2]; ref Kellner and Berlin, 2024): fails to enhance triheteromeric NMDARs

Molecule: Con-G: marine cone snail toxin, NMDAR antagonist targeting the GluN2B ligand binding domain (GEEELQENQELIREKSN; not fully specified (residues 3, 4, 7, 10, 14, C-terminus); ends and bridges not checked; UniProt P07231 81-97, looked up)
- NMDAR activity (NMDARs): NMDAR antagonist

Molecule: pregnenolone sulfate
- tail-like response on removal of modulator (NMDARs): tail-like response

Source: PMC12678337, “EAR-20 peptide, a novel NMDA receptor positive allosteric modulator” (Frontiers in Pharmacology, 2025)
